Patent publication EP4316461A1, “A PRESERVATIVE COMPOSITION” (BRAIN Biotech AG, priority 2022, dated 2024)

Columns and labels:
Type in all cases: cell-based
[1] = system: Zygosaccharomyces bailii; assay: Antimicrobial activity (MIC); conditions: Strain ID DSM 70834; potato dextrose broth pH 3.8
[2] = system: Leuconostoc mesenteroides ssp. mesenteroides; assay: Antimicrobial activity (MIC); conditions: Strain ID DSM 20343; potato dextrose broth pH 3.8
[3] = system: Gluconacetobacter liquefaciens; assay: Antimicrobial activity (MIC); conditions: Strain ID DSM 5603; potato dextrose broth pH 3.8
[4] = system: Leuconostoc lactis; assay: Antimicrobial activity (MIC); conditions: Strain ID DSM 20202; potato dextrose broth pH 3.8
[5] = system: Bacillus licheniformis; assay: Antimicrobial activity (MIC); conditions: Strain ID DSM 13; potato dextrose broth pH 3.8
[6] = system: Cladosporium cladosporioides; assay: Antimicrobial activity (MIC); conditions: Strain ID DSM19653; potato dextrose broth pH 3.8
[7] = system: Listeria monocytogenes; assay: Antimicrobial activity (MIC); conditions: Strain ID DSM 20600; potato dextrose broth pH 3.8
[8] = system: Fusobacterium nucleatum subsp. vincentii; assay: Antimicrobial activity (MIC); conditions: Strain ID DSM 19507; potato dextrose broth pH 3.8
[9] = system: Candida parapsilosis; assay: Antimicrobial activity (MIC); conditions: Strain ID ATCC 20384; potato dextrose broth pH 3.8
[10] = system: Pseudomonas aeruginosa; assay: Antimicrobial activity (MIC); conditions: Strain ID DSM 1117; potato dextrose broth pH 3.8
[11] = system: Lactobacillus paracasei ssp. paracasei; assay: Antimicrobial activity (MIC); conditions: Strain ID DSM 46331; potato dextrose broth pH 3.8
[12] = system: Aspergillus brasiliensis; assay: Antimicrobial activity (MIC); conditions: Strain ID DSM 1988; potato dextrose broth pH 3.8
[13] = system: Enterococcus faecalis; assay: Antimicrobial activity (MIC); conditions: Strain ID ATCC 7080; potato dextrose broth pH 3.8
[14] = system: Alicyclobacillus acidoterrestris; assay: Antimicrobial activity (MIC); conditions: Strain ID DSM 2498; potato dextrose broth pH 3.8
[15] = system: Saccharomyces cerevisiae; assay: Antimicrobial activity (MIC); conditions: Strain ID DSM 2548; potato dextrose broth pH 3.8
[16] = system: Clostridium sporogenes; assay: Antimicrobial activity (MIC); conditions: Strain ID ATCC 19404; potato dextrose broth pH 3.8
[17] = system: Candida albicans; assay: Antimicrobial activity (MIC); conditions: Strain ID ATCC10231; potato dextrose broth pH 3.8
[18] = system: Staphylococcus aureus; assay: Antimicrobial activity (MIC); conditions: Strain ID DSM 2569; potato dextrose broth pH 3.8
[19] = system: Actinomyces viscosus; assay: Antimicrobial activity (MIC); conditions: Strain ID DSM43798; potato dextrose broth pH 3.8
[20] = system: Malassezia furfur; assay: Antimicrobial activity (MIC); conditions: Strain ID DSM 6170; potato dextrose broth pH 3.8
[21] = system: Byssochlamys fulva; assay: Antimicrobial activity (MIC); conditions: Strain ID DSM 1808; potato dextrose broth pH 3.8
[22] = system: Lactobacillus plantarum ssp. plantarum; assay: Antimicrobial activity (MIC); conditions: Strain ID DSM 20174; potato dextrose broth pH 3.8
[23] = system: Streptococcus mutans; assay: Antimicrobial activity (MIC); conditions: Strain ID DSM 20523; potato dextrose broth pH 3.8
[24] = system: Penicillium expansum; assay: Antimicrobial activity (MIC); conditions: Strain ID DSM 62841; potato dextrose broth pH 3.8
[25] = system: Enterobacter cloacae; assay: Antimicrobial activity (MIC); conditions: Strain ID DSM 6234; potato dextrose broth pH 3.8
[26] = system: Botrytis cinerea; assay: Antimicrobial activity (MIC); conditions: Strain ID DSM 5145; potato dextrose broth pH 3.8
[27] = system: Clostridium perfringens; assay: microbe, parasite or virus in culture; conditions: Strain ID DSM 756; potato dextrose broth pH 3.8
[28] = system: Cutibacterium acnes; assay: Antimicrobial activity (MIC); conditions: Strain ID DSM 1897; potato dextrose broth pH 3.8
[29] = system: Pseudomonas fluorescens; assay: Antimicrobial activity (MIC); conditions: Strain ID DSM50337; potato dextrose broth pH 3.8
[30] = system: Alternaria alternata; assay: Antimicrobial activity (MIC); conditions: Strain ID DSM 12633; potato dextrose broth pH 3.8
[31] = system: Phanerochaete chrysosporium; assay: Antimicrobial activity (MIC); conditions: Strain ID DSM 1556; potato dextrose broth pH 3.8
[32] = system: Brettanomyces naardenensis; assay: Antimicrobial activity (MIC); conditions: Strain ID CBS 6115; potato dextrose broth pH 3.8
[33] = system: Corynebacterium xerosis; assay: Antimicrobial activity (MIC); conditions: Strain ID DSM 20743; potato dextrose broth pH 3.8
[34] = system: Bacillus cereus; assay: Antimicrobial activity (MIC); conditions: Strain ID DSM4490; potato dextrose broth pH 3.8
[35] = system: Campylobacter jejuni; assay: Antimicrobial activity (MIC); conditions: Strain ID DSM 4688; potato dextrose broth pH 3.8
[36] = system: Pasteurella multocida ssp. multocida; assay: Antimicrobial activity (MIC); conditions: Strain ID DSM 16031; potato dextrose broth pH 3.8
[37] = system: Salmonella enterica ssp. enterica Ser. typhimurium; assay: Antimicrobial activity (MIC); conditions: Strain ID DSM 17058; potato dextrose broth pH 3.8
[38] = system: Zygosaccharomyces rouxii; assay: Antimicrobial activity (MIC); conditions: Strain ID DSM 7525; potato dextrose broth pH 3.8
[39] = system: Yarrowia lipolytica; assay: Antimicrobial activity (MIC); conditions: Strain ID DSM 70561; potato dextrose broth pH 3.8
[40] = system: Porphyromonas gingivalis; assay: Antimicrobial activity (MIC); conditions: Strain ID DSM 20709; potato dextrose broth pH 3.8

Compound | Minimal Inhibitory Concentration (MIC) [1] | Minimal Inhibitory Concentration (MIC) [2] | Minimal Inhibitory Concentration (MIC) [3] | Minimal Inhibitory Concentration (MIC) [4] | Minimal Inhibitory Concentration (MIC) [5] | Minimal Inhibitory Concentration (MIC) [6] | Minimal Inhibitory Concentration (MIC) [7] | Minimal Inhibitory Concentration (MIC) [8] | Minimal Inhibitory Concentration (MIC) [9] | Minimal Inhibitory Concentration (MIC) [10] | Minimal Inhibitory Concentration (MIC) [11] | Minimal Inhibitory Concentration (MIC) [12] | Minimal Inhibitory Concentration (MIC) [13] | Minimal Inhibitory Concentration (MIC) [14] | Minimal Inhibitory Concentration (MIC) [15] | Minimal Inhibitory Concentration (MIC) [16] | Minimal Inhibitory Concentration (MIC) [17] | Minimal Inhibitory Concentration (MIC) [18] | Minimal Inhibitory Concentration (MIC) [19] | Minimal Inhibitory Concentration (MIC) [20] | other results
Transsylvanoside H [C, Transsylvanoside H [174423-50-8]] | > 80 µg/mL | > 80 µg/mL | 140 µg/mL | 80 µg/mL | > 80 µg/mL | > 80 µg/mL | > 80 µg/mL | 80 µg/mL | > 80 µg/mL | > 80 µg/mL | > 80 µg/mL | > 80 µg/mL | > 80 µg/mL | 40 µg/mL | > 80 µg/mL | 80 µg/mL | > 80 µg/mL | > 80 µg/mL | > 80 µg/mL | > 80 µg/mL | Minimal Inhibitory Concentration (MIC) [21]: > 80 µg/mL; Minimal Inhibitory Concentration (MIC) [22]: 40 µg/mL; Minimal Inhibitory Concentration (MIC) [23]: > 80 µg/mL; Minimal Inhibitory Concentration (MIC) [24]: >500 µg/mL; Minimal Inhibitory Concentration (MIC) [25]: > 80 µg/mL; Minimal Inhibitory Concentration (MIC) [26]: > 80 µg/mL; Minimal Inhibitory Concentration (MIC) [27]: > 80 µg/mL; Minimal Inhibitory Concentration (MIC) [28]: > 80 µg/mL; Minimal Inhibitory Concentration (MIC) [29]: > 80 µg/mL; Minimal Inhibitory Concentration (MIC) [30]: > 80 µg/mL; Minimal Inhibitory Concentration (MIC) [31]: > 80 µg/mL; Minimal Inhibitory Concentration (MIC) [32]: > 80 µg/mL; Minimal Inhibitory Concentration (MIC) [33]: > 80 µg/mL; Minimal Inhibitory Concentration (MIC) [34]: > 80 µg/mL; Minimal Inhibitory Concentration (MIC) [35]: > 80 µg/mL; Minimal Inhibitory Concentration (MIC) [36]: > 80 µg/mL; Minimal Inhibitory Concentration (MIC) [37]: > 80 µg/mL; Minimal Inhibitory Concentration (MIC) [38]: 500 µg/mL; Minimal Inhibitory Concentration (MIC) [39]: > 80 µg/mL; Minimal Inhibitory Concentration (MIC) [40]: > 80 µg/mL
C[C@@H]1O[C@@H](O[C@H]2[C@H](O[C@H]3CC[C@@]4(C)C(CC[C@]5(C)[C@@H]4CC=C4[C@H]6CC(C)(C)CC[C@]6(C(=O)O)CC[C@]45C)C3(C)CO)OC[C@H](O)[C@@H]2O[C@@H]2OC[C@H](O)[C@H](O)[C@H]2O)[C@H](O)[C@H](O)[C@H]1O (some centres unmarked) [B, Clemontanoside C [80666-65-5]] | > 80 µg/mL | > 80 µg/mL | 40 µg/mL | > 80 µg/mL | > 80 µg/mL | > 80 µg/mL | > 80 µg/mL | > 80 µg/mL | > 80 µg/mL | > 80 µg/mL | > 80 µg/mL | > 80 µg/mL | > 80 µg/mL | 140 µg/mL | > 80 µg/mL | 80 µg/mL | > 80 µg/mL | > 80 µg/mL | > 80 µg/mL | 80 µg/mL | Minimal Inhibitory Concentration (MIC) [21]: > 80 µg/mL; Minimal Inhibitory Concentration (MIC) [22]: 400 µg/mL; Minimal Inhibitory Concentration (MIC) [23]: > 80 µg/mL; Minimal Inhibitory Concentration (MIC) [24]: >500 µg/mL; Minimal Inhibitory Concentration (MIC) [25]: > 80 µg/mL; Minimal Inhibitory Concentration (MIC) [26]: > 80 µg/mL; Minimal Inhibitory Concentration (MIC) [27]: > 80 µg/mL; Minimal Inhibitory Concentration (MIC) [28]: > 80 µg/mL; Minimal Inhibitory Concentration (MIC) [29]: > 80 µg/mL; Minimal Inhibitory Concentration (MIC) [30]: > 80 µg/mL; Minimal Inhibitory Concentration (MIC) [31]: > 80 µg/mL; Minimal Inhibitory Concentration (MIC) [32]: > 80 µg/mL; Minimal Inhibitory Concentration (MIC) [33]: > 80 µg/mL; Minimal Inhibitory Concentration (MIC) [34]: > 80 µg/mL; Minimal Inhibitory Concentration (MIC) [35]: > 80 µg/mL; Minimal Inhibitory Concentration (MIC) [36]: > 80 µg/mL; Minimal Inhibitory Concentration (MIC) [37]: > 80 µg/mL; Minimal Inhibitory Concentration (MIC) [38]: 500 µg/mL; Minimal Inhibitory Concentration (MIC) [39]: > 80 µg/mL; Minimal Inhibitory Concentration (MIC) [40]: > 80 µg/mL
